Assay results from PubChem BioAssay AID1963864 (Molecular Pharmacology Branch, DTP, NCI, 2024).

Tested on: KRAS PDC multicell spheroid viability
Assay: Anticancer human tumor 521955-158-R6-J3-PDC patient-derived pancreatic carcinoma cell line growth inhibition [KRAS2]
Details: for IC50: curve of first compound; for viability, T/C: stronger effect = lower value
Outline: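 KRAS-mutant tumor cells were grown as spheroids with HUVEC endothelial cells and human MSCs as stroma. Targeted agents were tested alone and with KRAS pathway inhibitors. Doses started at or near clinical Cmax, or 10 microM, descending half-log.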

[1] = second compound 0.1 µM, first compound 0.000316 µM
[2] = second compound 0.1 µM, first compound 0.001 µM
[3] = second compound 0.1 µM, first compound 0.00316 µM
[4] = second compound 0.1 µM, first compound 0.01 µM
[5] = second compound 0.1 µM, first compound 0.0316 µM
[6] = second compound 0.316 µM, first compound 0.000316 µM
[7] = second compound 0.316 µM, first compound 0.001 µM
[8] = second compound 0.316 µM, first compound 0.00316 µM
[9] = second compound 0.316 µM, first compound 0.01 µM
[10] = second compound 0.316 µM, first compound 0.0316 µM
[11] = second compound 1 µM, first compound 0.000316 µM
[12] = second compound 1 µM, first compound 0.001 µM
[13] = second compound 1 µM, first compound 0.00316 µM
[14] = second compound 1 µM, first compound 0.01 µM
[15] = second compound 1 µM, first compound 0.0316 µM
[16] = second compound 3.16 µM, first compound 0.000316 µM
[17] = second compound 3.16 µM, first compound 0.001 µM
[18] = second compound 3.16 µM, first compound 0.00316 µM
[19] = second compound 3.16 µM, first compound 0.01 µM
[20] = second compound 3.16 µM, first compound 0.0316 µM
[21] = second compound 10 µM, first compound 0.000316 µM
[22] = second compound 10 µM, first compound 0.001 µM
[23] = second compound 10 µM, first compound 0.00316 µM
[24] = second compound 10 µM, first compound 0.01 µM
[25] = second compound 10 µM, first compound 0.0316 µM
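Further: drug exposure lasted seven days.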
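Wherever viability, T/C is given: 100% = DMSO vehicle wells and lower means fewer viable cells.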

| Structure (SMILES) | IC50 (second compound 0.1 µM) | IC50 (second compound 0.316 µM) | IC50 (second compound 1 µM) | IC50 (second compound 3.16 µM) | IC50 (second compound 10 µM) | viability, T/C [1] | viability, T/C [2] | viability, T/C [3] | viability, T/C [4] | viability, T/C [5] | viability, T/C [6] | viability, T/C [7] | viability, T/C [8] | viability, T/C [9] | viability, T/C [10] | viability, T/C [11] | viability, T/C [12] | viability, T/C [13] | viability, T/C [14] | viability, T/C [15] | other results |
| --- | --- | --- | --- | --- | --- | --- | --- | --- | --- | --- | --- | --- | --- | --- | --- | --- | --- | --- | --- | --- | --- |
| CC(=O)Nc1cccc(-n2c(=O)n(C3CC3)c(=O)c3c(Nc4ccc(I)cc4F)n(C)c(=O)c(C)c32)c1 + COc1cc2nc(C)nc(NC(C)c3cc(N)cc(C(F)(F)F)c3)c2cc1OC1CCOC1 | 16.7 nM | 10.2 nM | 12.3 nM | 6.23 nM | < 0.1 nM | 88.4% | 92.4% | 81.7% | 60.7% | 36.9% | 83.6% | 75.3% | 67.1% | 48.8% | 37.4% | 86.6% | 81.1% | 67.5% | 55.4% | 31.8% | viability, T/C (second compound 0.1 µM, first compound 0.0001 µM): 88%; viability, T/C (second compound 0.316 µM, first compound 0.0001 µM): 88.1%; viability, T/C (second compound 1 µM, first compound 0.0001 µM): 81.4%; viability, T/C (second compound 3.16 µM, first compound 0.0001 µM): 72.6%; viability, T/C [16]: 79.3%; viability, T/C [17]: 76.7%; viability, T/C [18]: 54.6%; viability, T/C [19]: 45.5%; viability, T/C [20]: 21.8%; viability, T/C (second compound 10 µM, first compound 0.0001 µM): 20.7%; viability, T/C [21]: 21.2%; viability, T/C [22]: 10.6%; viability, T/C [23]: 1.6%; viability, T/C [24]: 4.51%; viability, T/C [25]: 2.2% |
| Cn1ncnc1[C@H]1c2n[nH]c(=O)c3cc(F)cc(c23)N[C@@H]1c1ccc(F)cc1 + CC1OCC2(CCN(c3cnc(Sc4ccnc(N)c4Cl)c(N)n3)CC2)C1N | > 100 nM | > 100 nM | > 100 nM | > 100 nM | > 100 nM | 86.7% | 91% | 78.5% | 83.2% | 79.5% | 93.3% | 76.7% | 81.5% | 80.2% | 79.2% | 83.6% | 82% | 79% | 78% | 82.9% | viability, T/C (second compound 0.1 µM, first compound 0.1 µM): 77.2%; viability, T/C (second compound 0.316 µM, first compound 0.1 µM): 78.2%; viability, T/C (second compound 1 µM, first compound 0.1 µM): 86.4%; viability, T/C [16]: 99.8%; viability, T/C [17]: 95.6%; viability, T/C [18]: 96.3%; viability, T/C [19]: 106%; viability, T/C [20]: 96.2%; viability, T/C (second compound 3.16 µM, first compound 0.1 µM): 82%; viability, T/C [21]: 105%; viability, T/C [22]: 103%; viability, T/C [23]: 95%; viability, T/C [24]: 103%; viability, T/C [25]: 100%; viability, T/C (second compound 10 µM, first compound 0.1 µM): 97.9% |
